Test results: patent publication US12077503B2, “Substituted cyclic amides and their use as herbicides” (FMC CORPORATION, priority 2015, dated 2024)

Key:
Format in all cases: in vivo
Kochia (Kochia scoparia) [1] = experiment: Test A preemergence; conditions: Bassia scoparia, pre-emergence, 240 h; for pest or weed control at 125 g/ha: 125 g ai/ha, preemergence, 0 to 100 scale where 0 is no effect and 100 is complete control, read-out: Kochia plant response rating; for pest or weed control at 500 g/ha: 500 g ai/ha, Preemergence, visual injury vs untreated controls after approximately 10 d, read-out: Kochia plant response rating (0 to 100 scale where 0 is no effect and 100 is complete control)
How it was run: (§1)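 Ratings of 0 (no effect) to 100 (complete control) come from visual comparison with untreated controls roughly 10 d after treatment. Test chemicals, formulated in a non-phytotoxic solvent mixture with surfactant, were applied either as a preemergence directed soil spray on seeded soil or postemergence to one- to two-leaf plants 2 to 10 cm tall.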

[2] = test system: barnyardgrass (Echinochloa crus-galli); experiment: Test A preemergence; conditions: Echinochloa crus-galli, pre-emergence, 240 h; for pest or weed control at 125 g/ha: 125 g ai/ha, preemergence, 0 to 100 scale where 0 is no effect and 100 is complete control, read-out: Barnyardgrass plant response rating; for pest or weed control at 500 g/ha: 500 g ai/ha, Preemergence, visual injury vs untreated controls after approximately 10 d, read-out: Barnyardgrass plant response rating (0 to 100 scale where 0 is no effect and 100 is complete control)
How it was run: as §1

[3] = test system: giant foxtail (Setaria faberii); experiment: Test A preemergence; conditions: Setaria faberi, pre-emergence, 240 h; for pest or weed control at 125 g/ha: 125 g ai/ha, preemergence, 0 to 100 scale where 0 is no effect and 100 is complete control, read-out: Foxtail, Giant plant response rating; for pest or weed control at 500 g/ha: 500 g ai/ha, Preemergence, visual injury vs untreated controls after approximately 10 d, read-out: Foxtail, Giant plant response rating (0 to 100 scale where 0 is no effect and 100 is complete control)
How it was run: as §1

[4] = test system: pigweed (Amaranthus retroflexus); experiment: Test A preemergence; conditions: Amaranthus retroflexus, pre-emergence, 240 h; for pest or weed control at 125 g/ha: 125 g ai/ha, preemergence, 0 to 100 scale where 0 is no effect and 100 is complete control, read-out: Pigweed plant response rating; for pest or weed control at 500 g/ha: 500 g ai/ha, Preemergence, visual injury vs untreated controls after approximately 10 d, read-out: Pigweed plant response rating (0 to 100 scale where 0 is no effect and 100 is complete control)
[5] = test system: ragweed (common ragweed, Ambrosia elatior); experiment: Test A preemergence; conditions: Ambrosia artemisiifolia, pre-emergence, 240 h; for pest or weed control at 125 g/ha: 125 g ai/ha, preemergence, 0 to 100 scale where 0 is no effect and 100 is complete control, read-out: Ragweed plant response rating; for pest or weed control at 500 g/ha: 500 g ai/ha, Preemergence, visual injury vs untreated controls after approximately 10 d, read-out: Ragweed plant response rating (0 to 100 scale where 0 is no effect and 100 is complete control)
How it was run: as §1

[6] = test system: ryegrass, Italian (Italian ryegrass, Lolium multiflorum); experiment: Test A preemergence; conditions: Lolium multiflorum, pre-emergence, 240 h; for pest or weed control at 125 g/ha: 125 g ai/ha, preemergence, 0 to 100 scale where 0 is no effect and 100 is complete control, read-out: Ryegrass, Italian plant response rating; for pest or weed control at 500 g/ha: 500 g ai/ha, Preemergence, visual injury vs untreated controls after approximately 10 d, read-out: Ryegrass, Italian plant response rating (0 to 100 scale where 0 is no effect and 100 is complete control)
How it was run: as §1

[7] = test system: Galium (catchweed bedstraw, Galium aparine); experiment: Test A postemergence; conditions: Galium, post-emergence, 240 h, 125 g ai/ha, postemergence, visual injury rating after approximately 10 d; read-out: Galium plant response rating (0 to 100 scale, 0 no effect, 100 complete control)
How it was run: as §1

Kochia (Kochia scoparia) [8] = experiment: Test A postemergence; conditions: Bassia scoparia, post-emergence, 240 h, 125 g ai/ha, postemergence, visual injury rating after approximately 10 d; read-out: Kochia plant response rating (0 to 100 scale, 0 no effect, 100 complete control)
How it was run: as §1

[9] = test system: barnyardgrass (Echinochloa crus-galli); experiment: Test A postemergence; conditions: Echinochloa crus-galli, post-emergence, 240 h, 125 g ai/ha, postemergence, visual injury rating after approximately 10 d; read-out: Barnyardgrass plant response rating (0 to 100 scale, 0 no effect, 100 complete control)
How it was run: as §1

[10] = test system: blackgrass (Alopecurus myosuroides); experiment: Test A postemergence; conditions: Alopecurus myosuroides, post-emergence, 240 h, 125 g ai/ha, postemergence, visual injury rating after approximately 10 d; read-out: Blackgrass plant response rating (0 to 100 scale, 0 no effect, 100 complete control)
How it was run: as §1

corn (Zea mays) = experiment: Test A postemergence; conditions: Zea mays, post-emergence, 240 h, 125 g ai/ha, postemergence, visual injury rating after approximately 10 d; read-out: Corn plant response rating (0 to 100 scale, 0 no effect, 100 complete control)
How it was run: as §1

[11] = test system: giant foxtail (Setaria faberii); experiment: Test A postemergence; conditions: Setaria faberi, post-emergence, 240 h, 125 g ai/ha, postemergence, visual injury rating after approximately 10 d; read-out: Foxtail, Giant plant response rating (0 to 100 scale, 0 no effect, 100 complete control)
How it was run: as §1

[12] = test system: pigweed (Amaranthus retroflexus); experiment: Test A postemergence; conditions: Amaranthus retroflexus, post-emergence, 240 h, 125 g ai/ha, postemergence, visual injury rating after approximately 10 d; read-out: Pigweed plant response rating (0 to 100 scale, 0 no effect, 100 complete control)
How it was run: as §1

[13] = test system: ragweed (common ragweed, Ambrosia elatior); experiment: Test A postemergence; conditions: Ambrosia artemisiifolia, post-emergence, 240 h, 125 g ai/ha, postemergence, visual injury rating after approximately 10 d; read-out: Ragweed plant response rating (0 to 100 scale, 0 no effect, 100 complete control)
How it was run: as §1

[14] = test system: ryegrass, Italian (Italian ryegrass, Lolium multiflorum); experiment: Test A postemergence; conditions: Lolium multiflorum, post-emergence, 240 h, 125 g ai/ha, postemergence, visual injury rating after approximately 10 d; read-out: Ryegrass, Italian plant response rating (0 to 100 scale, 0 no effect, 100 complete control)
How it was run: as §1

[15] = test system: wheat (Triticum aestivum); experiment: Test A postemergence; conditions: Triticum aestivum, post-emergence, 240 h, 125 g ai/ha, postemergence, visual injury rating after approximately 10 d; read-out: Wheat plant response rating (0 to 100 scale, 0 no effect, 100 complete control)
How it was run: as §1

Row | Structure (SMILES) | pest or weed control at 125 g/ha (Kochia (Kochia scoparia) [1]) [%] | pest or weed control at 500 g/ha (Kochia (Kochia scoparia) [1]) [%] | pest or weed control at 125 g/ha [2] [%] | pest or weed control at 500 g/ha [2] [%] | pest or weed control at 125 g/ha [3] [%] | pest or weed control at 500 g/ha [3] [%] | pest or weed control at 125 g/ha [4] [%] | pest or weed control at 500 g/ha [4] [%] | pest or weed control at 125 g/ha [5] [%] | pest or weed control at 500 g/ha [5] [%] | pest or weed control at 125 g/ha [6] [%] | pest or weed control at 500 g/ha [6] [%] | pest or weed control at 125 g/ha [7] [%] | pest or weed control at 125 g/ha (Kochia (Kochia scoparia) [8]) [%] | pest or weed control at 125 g/ha [9] [%] | pest or weed control at 125 g/ha [10] [%] | plant injury at 125 g/ha (corn (Zea mays)) [%] | pest or weed control at 125 g/ha [11] [%] | pest or weed control at 125 g/ha [12] [%] | pest or weed control at 125 g/ha [13] [%] | also measured
1 | Cc1c(F)cccc1NC(=O)[C@H]1C(=O)N(C)C[C@@H]1c1cc(F)c(F)c(F)c1 [Compound 867] | 50 | 70 | 90 | 90 | 90 | 90 | 0 | 30 | 0 | 30 | 60 | 60 | 30 | 0 | 90 | 30 | 60 | 80 | 0 | 0 | pest or weed control at 125 g/ha [14]: 20%; plant injury at 125 g/ha [15]: 20%
2 | CCOc1ccc([C@H]2CN(C)C(=O)[C@@H]2C(=O)Nc2ccccc2F)cc1 [Compound 903] | 20 | 90 | 90 | 90 | 90 | 90 | 0 | 0 | 0 | 0 | 0 | 0 | 10 | 0 | 80 | 0 | 0 | 80 | 0 | 0 | pest or weed control at 125 g/ha [14]: 0%; plant injury at 125 g/ha [15]: 0%
